From paper PMC9738632 (Molecules, 2022)
Where two headings read alike, the source gives them in different places.

Tests used:
[1] = system: influenza virus A/Puerto Rico/8/34 (H1N1); test: organism not typed; assay type: cell-based; conditions: for IC50: read-out: IC50 (50% inhibitory concentration)
[2] = Cytotoxicity assay (MTT) in MDCK cells; assay type: cell-based, Canine; conditions: dog, read-out: CC50 (50% cytotoxic concentration)
Experimental: Initially, maximum non-toxic concentrations were determined for compounds 1–22 to exclude their non-specific antiviral activity. The in vitro cytotoxicity of the tested compounds (CC50) was studied in the normal Madin-Darby Canine Kidney cell line (MDCK) by the MTT ((3-(4,5-dimethylthiazol-2-yl)-2,5-diphenyltetrazolium bromide) test. The highest concentration tested was […]. The cytotoxicity of oseltamivir carboxylate and rimantadine was also evaluated as these have been used as reference drugs in antiviral tests. Compounds at concentration that kills no more than 50% of cells (CC50) were used for further investigation of antiviral activity.
The MDCK cells were seeded onto 96-well culture plates (10^4 cells per well) and incubated at 36 °C in 5% CO2 until continuous monolayer formation. To assess the toxicity of the compounds, a series of their 3-fold dilutions, at concentrations of 300 to 3.7 μg/mL in Eagle’s Minimal Essential Medium (MEM), were prepared. The dilutions were added to the wells of the plates. The cells were incubated for 72 h at 36 °C in a CO2 incubator under 5% CO2. Further, a microtetrazolium (MTT) assay was performed on the 96-well plates. The cells were washed 2 times with saline (0.9% NaCl), and 100 μL/well of MTT solution [3-(4,5-dimethylthiazol-2-yl)-2,5-diphenyltetrazolium bromide] at a concentration of […] in MEM was added. The plates were incubated for 1 h at 36 °C, the liquid was removed, and dimethylsulfoxide (DMSO) (0.1 mL per well) was added. The optical density (OD) of the cells was measured on a Thermo Multiskan FC spectrophotometer (Thermo Fisher Scientific, Waltham, MA, USA) at a wavelength of 540 nm. Based on the obtained data, the CC50, the concentration of the compound that destroys 50% of the cells in the culture, was calculated for each specimen.

DENV-2: 00St22A = test: Plaque reduction neutralization test (PRNT), DENV-2; assay type: cell-based, Dengue virus; conditions: DENV-2, BHK-21 cells; for IC50: Dengue virus, DENV2, read-out: PRNT50 DENV-2 (concentration that reduces plaque number by 50%)
Description: (§1) The dengue viruses used in this study were DENV-1:VN/2017/D7709, DENV-2: 00St22A, DENV-3: SMLC50, DENV-4: SLMC318. The virus strains were supplied by the Vietnam National Institute of Hygiene and Epidemiology. The four above serotypes of the Dengue virus were propagated in BHK-21 cell lines (provided by Nagasaki University, Japan) in Eagle’s Minimum Essential Medium (EMEM; Gibco Thermo Fischer Scientific, Waltham, MA, USA) with 2% Fetal Bovine Serum (FBS; Sigma Aldrich, St. Louis, MO, USA) at 37 °C under 5% CO2 atmosphere for 5–7 days. The BHK-21 cells were cultured using 10% FBS EMEM medium.
(§2) EMEM (1 mL) containing FBS (2%) was added into each of 24-well plates (with a concentration of […] –1.0 × 10^4 cells/well). The well plates were shaken to induce the formation of identical cell layers. Afterwards, the wells were incubated at 37 °C under 5% CO2 atmosphere overnight until the cell concentration reached at 70–90%. In case this concentration was not yet reached, the incubation was allowed to continue for a further 1 to 2 days.
(§3) The compounds 4–8 and 23 were totally dissolved in EMEM with a concentration of 500 μg/mL, which was serially diluted with step 2 with EMEM containing 2% FBS; the solutions of compounds were kept at 2–8 °C. The viruses were used at the dose of 2.5 × 10^3 PFU/mL in EMEM containing 2% FBS. The virus (100 μL) was added to all the diluted samples. The virus-compounds mixtures were incubated at 37 °C under 5% CO2 atmosphere for 60 min; afterwards, the medium in all wells of the plates was removed. The virus-compounds mixture (50 μL) was added into the wells, according to the designed experimental test concentration/dilution.
(§4) The viral medium was used as the negative control. EMEM (2 mL) containing methyl cellulose (1%) was added and re-incubated at 37 °C under 5% CO2 atmosphere for 4–6 days. The typical DENV-1 and DENV-4-induced CPE appeared after 4 days of incubation, while the durations for DENV-2 and DENV-3 were 5 and 6 days, respectively. These times of incubation allowed the formation of the plaques to be visually observable and countable. The plaques can be observed under a microscope or by eyes. The cells were fixed with formalin (3.7%) for 1 h at room temperature, washed with water, and stained with crystal violet (0.25%) for 1 h at room temperature. Finally, the plaques were counted.

[3] = Cytotoxic assay (MTT) against BHK-21 cells; assay type: cell-based; conditions: hamster, read-out: CC50 (50% cytotoxic concentration)
Experimental: The cytotoxic evaluation of the extracts was carried out against the BHK-21 cells. Under cultural conditions of EMEM with FBS (10%), the assaying cells were grown in 96-well bottom-transparent plates at a density of 6 × 10^4 cells/mL per well. The compounds that had been dissolved in dimethyl sulfoxide (DMSO) with six different concentrations (500, 250, 125, 62.5, 31.25, 15.625 μg/mL) were added into each well; each concentration was used in triplicate. After incubation at 37 °C under 5% CO2 atmosphere for 48 h, MTT (0.5 mg/mL) was added into each well; afterwards, 4 h incubation was carried out. The liquid in the wells was removed, and DMSO ([…]) was added to each well. The optical absorbance was recorded on a microplate reader at λ = 570 nm (Genious Tecan, Grödig, […]). The optical density in the wells was plotted against the logarithm of compound concentration, and 50% cytotoxic concentration (CC50), the compound concentration decreasing the optical density twice comparing to control wells, was calculated using the appropriate software (Table Curve 2Dv4.USA).

DENV-3: SMLC50 = test: Plaque reduction neutralization test (PRNT), DENV-3; assay type: cell-based, Dengue virus; conditions: DENV-3, BHK-21 cells; for IC50: Dengue virus, DENV3, read-out: PRNT50 DENV-3 (concentration that reduces plaque number by 50%)
Description: as §1, §2, §3, §4

DENV-1:VN/2017/D7709 = test: Plaque reduction neutralization test (PRNT), DENV-1; assay type: cell-based, Dengue virus; conditions: DENV-1, BHK-21 cells; for IC50: Dengue virus, DENV1, read-out: PRNT50 DENV-1 (concentration that reduces plaque number by 50%)
Description: as §1, §2, §3, §4

DENV-4: SLMC318 = test: Plaque reduction neutralization test (PRNT), DENV-4; assay type: cell-based, Dengue virus; conditions: DENV-4, BHK-21 cells; for IC50: Dengue virus, DENV4, read-out: PRNT50 DENV-4 (concentration that reduces plaque number by 50%)
Description: as §1, §2, §3, §4

Flu A H1N1 strain = system: Flu A H1N1 strain; set-up: method as in doi:10.1177/1934578X1801301008; conditions: read-out: IC50 against Flu A H1N1 strain; cited from earlier work
influenza virus A H7N1 = conditions: cited from earlier work

Compound	melting point [°C]	SI (selectivity index, CC50/IC50) [1]	IC50 ([1]; MDCK, 72 h) [µM]	CC50 at 72 h [2] [µM]	IC50 (DENV-2: 00St22A) [µM]	CC50 at 48 h [3] [µM]	IC50 (DENV-3: SMLC50) [µM]	IC50 (DENV-1:VN/2017/D7709) [µM]	IC50 (DENV-4: SLMC318) [µM]	other results
CC1(C)CC[C@]2(C(=O)N3CCCNCC3)CC[C@]3(C)C(=CCC4[C@@]5(C)CCC(=O)C(C)(C)C5CC[C@]43C)C2C1 (some centres unmarked) [Compound 2, N-(3-Oxo-olean-12(13)-en-28-oyl)-homopiperazine Amide]	174	>27	20 to 21	> 560						IC50 [1]: 21 ± 3 µM
CC1(C)CC[C@]2(C(=O)NCCN3CCNCC3)CC[C@]3(C)C(=CCC4[C@@]5(C)CCC(=O)C(C)(C)C5CC[C@]43C)C2C1 (some centres unmarked) [Compound 6, N-(3-Oxo-olean-12(13)-en-28-oyl)-aminoethylpiperazine Amide]	175	5	82 ± 10	442 ± 31	86 ± 5	111 ± 8	> 111	67 ± 4	110 ± 8	
CC1(C)CC[C@]2(C(=O)N3CCCNCC3)CC[C@]3(C)C(=CCC4[C@@]5(C)Cc6c([nH]c7ccccc67)C(C)(C)C5CC[C@]43C)C2C1 (some centres unmarked) [Compound 7, N-([3,2b]-Indolo-olean-12(13)-en-28-oyl)-homopiperazine Amide]	> 200				105 ± 7	> 410	> 410	164 ± 11	371 ± 16	
CC1(C)CC[C@]2(C(=O)NCCCNCCCCNCCCN)CC[C@]3(C)C(=CCC4[C@@]5(C)Cc6c([nH]c7ccccc67)C(C)(C)C5CC[C@]43C)C2C1 (some centres unmarked) [Compound 8, N-([3,2b]-Indolo-olean-12(13)-en-28-oyl)-spermine Amide]	138	>5	27 ± 4	> 140	347 ± 21	> 351	> 351	336 ± 22	336 ± 28	PRNT50 DENV-2 (concentration that reduces plaque number by 50%) (DENV-2: 00St22A): inactive; PRNT50 DENV-3 (concentration that reduces plaque number by 50%) (DENV-3: SMLC50): inactive; PRNT50 DENV-1 (concentration that reduces plaque number by 50%) (DENV-1:VN/2017/D7709): inactive; PRNT50 DENV-4 (concentration that reduces plaque number by 50%) (DENV-4: SLMC318): inactive
CCOC(=O)CNC(=O)CN(Cc1ccccc1)C(=O)[C@]12CCC(C)(C)CC1C1=CCC3[C@@]4(C)CCC(=O)C(C)(C)C4CC[C@@]3(C)[C@]1(C)CC2 (some centres unmarked) [Compound 9, Ethyl N-Benzyl-N-3-oxo-olean-12-en-28-glycylglycinate]	245 to 247	>11	41 ± 5	> 437						
CCOC(=O)CNC(=O)CN(Cc1ccccc1)C(=O)[C@]12CCC(C)(C)CC1C1=CCC3[C@@]4(C)Cc5c([nH]c6ccccc56)C(C)(C)C4CC[C@@]3(C)[C@]1(C)CC2 (some centres unmarked) [Compound 10, Ethyl N-Benzyl-N-2,3-indolo-olean-12-en-28-glycylglycinate]	197 to 199	3	39 ± 4	121 ± 9						
CC1(C)CC[C@]2(C(=O)N3CCCN(CC#N)CC3)CC[C@]3(C)C(=CCC4[C@@]5(C)CCC(=O)C(C)(C)C5CC[C@]43C)C2C1 (some centres unmarked) [Compound 11, N-(3-Oxo-olean-12(13)-en-28-oyl)-4′-cyanomethyl-homopiperazine Amide]	191	>12	45 ± 6	> 522						
COC(=O)[C@]12CCC(C)(C)CC1C1=CCC3[C@@]4(C)CC[C@H](NC(=O)c5ccccc5C(=O)O)C(C)(C)C4CC[C@@]3(C)[C@]1(C)CC2 (stereo partly drawn) [Compound 22, Methyl 3β-N-phthalyl-olean-12(13)-en-28-oate]	240	>42	12 ± 2	> 486						
CC1(C)CC[C@]2(CO)CC[C@]3(C)C(NCCC4[C@@]5(C)CC[C@H](O)C(C)(C)C5CC[C@]43C)C2C1 (some centres unmarked) [Compound 23, C-azepano-erythrodiol]					68 ± 3	> 544	228 ± 16	107 ± 7	108 ± 5	
CCC(CC)O[C@@H]1C=C(C(=O)O)C[C@H](N)[C@H]1NC(C)=O [Oseltamivir carboxylate, reference compound]		>667	0.3 ± 0.01	> 200						
CC(N)C12CC3CC(CC(C3)C1)C2 (centres unmarked) [Rimantadine, reference compound]		6		344 ± 19						
Lupane 3,4-seco-3,28-bis-methylpiperazine-amide										IC50 (Flu A H1N1 strain): 27 µM
betulonic acid L-leucine-amide										suppression of the influenza virus A H7N1 (influenza virus A H7N1): 90%; EC50 (influenza virus A H7N1; influenza virus A H7N1): 2.17 µM
